US10550114B2, “Kinase inhibitors and their use in cancer therapy” (TECHNISCHE UNIVERSITÄT DORTMUND, priority 2015, dated 2020)
Where two headings read alike, the source gives them in different places. Values belong to the compound of their own block, whether it stands above or below them.

Assays:
BT474 cells = assay: Western blot in breast cancer cells; format: cell-based, human; details: BT474, 24 hours
Protocol: (§1) Human ductal breast carcinoma cells (BT474) and human prostate adenocarcinoma cells (PC-3) were purchased from the ATCC (Bethesda, Md., USA) and were cultured in RPMI 1640 medium (Life Technologies, Germany) supplemented with 10% (v/v) fetal calf serum (FCS; Biochrom, Berlin, Germany) and maintained in a humidified incubator at 37° C. and 5% CO2 (C200, Labotect Incubator, Göttingen, Germany).
(§2) BT474 and PC-3 cells were lysed for 10 min at 95° C. in 62.5 mM Tris-HCl (pH 6.8), 2% (w/v) SDS, 10% (v/v) glycerol, 80 mM DTT, and 0.01% (w/v) bromophenol blue (350.000 cells per 100 μL lysis buffer). Proteins were separated by SDS-PAGE and blotted onto PVDF-membranes (Roth, Karlsruhe, Germany) using Fastblot according to manufacturer's manual (B44, Biometra, Goettingen, Germany). After blocking with 5% (w/v) nonfat dry milk membranes were incubated at 4° C. over night with the respective primary antibody (1:20.000 for β-actin, 1:1000 for all other antibodies). After washing, the membranes were incubated for 1 h at room temperature with the secondary antibody (anti-IgG-HRP 1:2000, CST, Frankfurt, Germany) washed again and monitored by chemiluminescence imaging using FUSION Solo (peqlab, Erlangen, Germany) and appropriate ECL Prime Western blotting detection reagent according to the manufacturer's protocol (GE Healthcare/Amersham-Biosciences, Freiburg, Germany). […]

MAP4K5 = MAP4K5 (Homo sapiens (Human), UniProt Q9Y4K4); assay: Z'LYTE kinase assay, SelectScreen panel; format: biochemical; details: 1 μM compound, apparent ATP KM
Chain of MAP4K5 (Q9Y4K4 whole entry): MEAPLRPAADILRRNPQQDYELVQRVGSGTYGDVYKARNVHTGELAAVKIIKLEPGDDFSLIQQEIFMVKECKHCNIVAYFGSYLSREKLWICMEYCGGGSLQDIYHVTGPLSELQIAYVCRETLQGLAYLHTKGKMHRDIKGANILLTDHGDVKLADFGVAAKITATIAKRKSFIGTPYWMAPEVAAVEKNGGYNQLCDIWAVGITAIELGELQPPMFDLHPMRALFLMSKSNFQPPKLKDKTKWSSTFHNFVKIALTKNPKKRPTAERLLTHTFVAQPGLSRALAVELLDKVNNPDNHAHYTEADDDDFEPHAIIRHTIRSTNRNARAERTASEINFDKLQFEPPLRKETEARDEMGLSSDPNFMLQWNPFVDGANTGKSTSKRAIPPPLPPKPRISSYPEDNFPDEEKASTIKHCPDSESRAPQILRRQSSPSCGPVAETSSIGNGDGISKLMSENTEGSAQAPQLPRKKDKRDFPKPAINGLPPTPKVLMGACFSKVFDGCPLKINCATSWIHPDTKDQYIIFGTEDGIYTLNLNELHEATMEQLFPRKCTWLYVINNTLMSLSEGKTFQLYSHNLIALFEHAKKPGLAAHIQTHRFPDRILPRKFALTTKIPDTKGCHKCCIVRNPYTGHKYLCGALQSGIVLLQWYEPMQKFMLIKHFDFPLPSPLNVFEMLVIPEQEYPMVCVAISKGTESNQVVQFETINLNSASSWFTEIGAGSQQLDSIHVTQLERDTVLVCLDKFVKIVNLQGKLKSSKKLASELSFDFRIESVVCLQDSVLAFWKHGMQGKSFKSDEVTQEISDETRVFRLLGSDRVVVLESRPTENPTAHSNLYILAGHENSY

[1] = Maximum tolerated dose in mice; details: RjOrl:SWISS, mouse, in vivo, ip, PBS/PEG200 (60:40)
GIST-T1 cells = assay: Western blot in gastrointestinal stromal tumor cells; format: cell-based, human; details: GIST-T1, 24 hours
Protocol: For GIST-T1 cells protein lysates were prepared from cell line monolayers according to standard protocols as described in A. Duensing, F. Medeiros, B. McConarty, N. E. Joseph, D. Panigrahy, S. Singer, C. […] Protein concentrations were determined with the Bio-Rad Protein Assay (Bio-Rad Laboratories, Hercules, Calif.). Electrophoresis and immunoblotting were carried out as described in B. P. Rubin, S. Singer, C. Tsao, A. Duensing, M. L. Lux, R. Ruiz, M. K. Hibbard, C. J. Chen, S. Xiao, D. A. Tuveson, G. D. Demetri, C.
Controls were treated with dimethyl sulfoxide (DMSO).

PC3 cells = assay: Western blot in prostate cancer cells; format: cell-based, human; details: PC3, 24 hours
Protocol: as §1, §2

[2] = Pharmacokinetic profiling in mice (plasma, LC-MS/MS); details: for bioavailability: CD1, mouse, in vivo
Protocol: EDTA was added to plasma in order to prevent blood from coagulation. The compound concentrations in the particular plasma samples were determined by LC-MS/MS, as follows:
Samples and blanks were prepared by adding 2.5 μL blank DMSO and 80 μL of ice-cold acetonitrile containing the internal standard (Griseofulvin, 1 μM) to 20 μl plasma followed by centrifugation at 13000 rpm (4° C.) for 10 min. 65 μL of the supernatant were diluted with 65 μL of LC-MS grade water. Samples were filtered (Millipore MSRLN0450 hydrophil) and subjected to LC-MS measurement. […] 2.5 μL of the corresponding DMSO stock solution were added to 20 μL of blank plasma followed by the addition of 80 μL of ice-cold acetonitrile containing the internal-standard. The samples were centrifuged for 10 min and 4° C. at 13000 rpm. 65 μL of the supernatant were diluted with 65 μL of LC-MS grade water and subjected to LC-MS analysis. A set of 3 different QCs (n=3) was prepared by adding of 2.5 μL DMSO stock solution (5, 0.5 and 0.05 μM) to 20 μL of plasma. Samples were subsequently handled as described above. All samples were analyzed using a Shimadzu LC20ADXR Solvent Delivery Unit, a Shimadzu SIL30ACMP autosampler and a ABSciex Qtrap5500 LC-MS/MS system. Therefore, 2 μL of sample were injected and separated using an Agilent Poroshell C18, 2.7 μm column (2.1 mm×50 mm) at 60° C. starting at 5% of solvent B for 0.3 min followed by a gradient up to 100% of solvent B over 0.6 min (flow rate 1 mL/min) with 0.1% formic acid in water as solvent A and 0.1% formic acid in acetonitrile as solvent B. Data evaluation was performed using Analyst 1.6.2 Software (Sciex).

[3] = target: T1, activated full-length wtAkt1 (Homo sapiens (Human), UniProt P31749); assay: Time-dependent activity-based screening; format: biochemical; details: incubation 10, 30, 60 or 300 minutes
T1 sequence (P31749 whole entry): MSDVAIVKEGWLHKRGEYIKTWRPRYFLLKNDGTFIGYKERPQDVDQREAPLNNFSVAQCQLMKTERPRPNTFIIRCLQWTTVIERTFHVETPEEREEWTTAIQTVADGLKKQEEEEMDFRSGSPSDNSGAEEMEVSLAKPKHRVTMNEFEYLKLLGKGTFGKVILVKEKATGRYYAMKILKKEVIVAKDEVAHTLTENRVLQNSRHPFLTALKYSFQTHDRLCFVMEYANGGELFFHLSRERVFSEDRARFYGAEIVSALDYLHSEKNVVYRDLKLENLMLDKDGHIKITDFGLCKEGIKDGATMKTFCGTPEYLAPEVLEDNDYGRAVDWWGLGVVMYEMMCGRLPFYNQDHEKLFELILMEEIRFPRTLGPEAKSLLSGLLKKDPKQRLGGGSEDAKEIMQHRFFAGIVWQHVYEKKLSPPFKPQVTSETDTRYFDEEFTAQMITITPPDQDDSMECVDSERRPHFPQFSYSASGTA

[4] = target: T1, activated full-length wtAkt1; assay: Activity-based (HTRF) assay, manual dilution series; details: for higher concentration required for half-maximum inhibition of Akt1 versus alkenyl counterpart: 1b vs 1a, 2b vs 2a
From the text: OriginPro 9.1G software (OriginLab Corporation, Northhampton, Mass.) was used for data analysis and data was fit to a sigmoidal dose-response model using the following four-parameter logistic equation:
(§5) The potential influence of the reactive alkenyl group functioning as a Michael acceptor was further evaluated and the inhibitory potencies further assessed in activity-based studies utilizing activated full-length wtAkt1 (Millipore).

[5] = target: fluorescently labeled full-length Akt1 (Homo sapiens (Human), UniProt P31749, C296S/C310S/C344S/E49C); assay: iFLiK binding analysis; details: fluorophore-labeled Akt1 200 nM; n.r. = no response up to 100 μM
Chain of fluorescently labeled full-length Akt1 (P31749 whole entry E49C/C296S/C310S/C344S): as the sequence (P31749 whole entry) above, with E49C, C296S, C310S, C344S counted along it
Protocol: Afterwards they were cloned into pREN4427-HIS-DEST vector and introduced into a baculovirus using the BacMagic Kit (Calbiochem) in Sf9 cells (Invitrogen). Protein expression, purification and labeling was performed according to standard protocols.
The final concentration of fluorophore-labeled recombinant Akt1 was 200 nM.

[6] = target: T1, activated full-length wtAkt1; assay: Kinetic characterization by determination of kinact/Ki (time-dependent IC50); format: biochemical; details: incubation 1 to 120 minutes; manual dilution series
Protocol: (§3) Time-dependent IC50 measurements were performed with activated full-length Akt1 as described under “Biochemical assays”. Briefly, IC50 values were determined for twelve different incubation times and afterwards plotted versus accordingly. Data was analyzed according to literature procedure as described in B. F. Krippendorff, R. Neuhaus, P. Lienau, A. Reichel, W. Huisinga, J. Biomol. Screen.
(§4) Calculated IC50 values were plotted versus the incubation time and data was fit as described in the literature to determine kinact and Ki as described above.

Full-length wtAkt1 = Full-length wtAkt1 (Homo sapiens (Human), UniProt P31749); assay: ESI-MS/MS analysis after tryptic digest; format: binding; details: 2-fold molar excess
Chain of Full-length wtAkt1 (P31749 whole entry): as the sequence (P31749 whole entry) above
Protocol: Protoc. […] 3 μL of sample were loaded onto a pre-column cartridge and desalted for 5 min using 0.1% TFA in water as eluent at a flow rate of 30 μL/min. The samples were back-flushed from the pre-column to the nano-HPLC column during the whole analysis. […] During the complete gradient cycle, a typical TOP10 shot-gun proteomics method for the MS and MS/MS analysis was used. […] Biotechnol.

wild-type Akt1 [7] = target: T2, wild-type Akt1 (Homo sapiens (Human), UniProt P31749); assay: ESI-MS of compound-treated Akt1; format: binding; details: 2 molar equivalents, thirty minutes on ice, vs DMSO control
T2 sequence (P31749 whole entry): as above
Protocol: Purified full-length wtAkt1 was thawed under cold water and diluted to a final concentration of 1 mg/mL in storage buffer (50 mM HEPES, 200 mM NaCl, 10% Glycerol, pH 7.4). […] Following incubation for thirty minutes on ice, the samples were analyzed by ESI-MS using an Agilent 1100 Series HPLC System connected to a ThermoFinnigan LTQ Linear Ion Trap mass spectrometer. […] During the complete experiment, a mass range of 700 to 2000 m/z was scanned and raw data was deconvoluted and analyzed with MagTran and mMass (Version 5.5.0) software.

[8] = target: activated full-length Akt1 (Homo sapiens (Human), UniProt P31749); assay: Kinetic parameters (Ki, kinact), ECHO520 dilution series; format: biochemical; details: for kinact/KI: ECHO520
Chain of activated full-length Akt1 (P31749 whole entry): as above
Protocol: as §3, §4

Akt1_E17K = Akt1_E17K (Homo sapiens (Human), UniProt P31749, E17K); assay: Activity-based assay, ECHO520 dilution series; format: biochemical; details: mutant Akt1_E17K
Chain of Akt1_E17K (P31749 whole entry E17K): as the sequence (P31749 whole entry) above, with E17K counted along it
From the text: as §5

wild-type Akt1 [9] = target: T2, wild-type Akt1; assay: Activity-based assay, ECHO520 dilution series; format: biochemical
From the text: as §5

[10] = activated full-length wtAkt1, 120 pM, manual dilution series

Compound: C=CC(=O)Nc1ccc2[nH]c(=O)n(C3CCN(Cc4ccc(-c5nc6cc[nH]c(=O)c6cc5-c5ccccc5)cc4)CC3)c2c1 [Compound 1a, N-(2-oxo-3-(1-(4-(5-oxo-3-phenyl-5,6-dihydro-1,6-naphthyridin-2-yl)benzyl)piperidin-4-yl)-2,3-dihydro-1H-benzo[d]imidazol-5-yl) acrylamide]
phosphorylation of Akt1 substrate GSK3β (BT474 cells): decreased phosphorylation
pAkt1 (Thr308 and Ser473) level (BT474 cells; 0.01-10 μM): dose-dependent decreases of pAkt1
inhibition at 1 µM (MAP4K5): 37%
MTD [1]: 20 mg/kg
phosphorylation of downstream targets S6 and 4EBP1 (GIST-T1 cells): decreasing phosphorylation
cellular pAkt1 levels (GIST-T1 cells; 0.001-0.1 μM): reduces cellular pAkt1 levels at low nanomolar concentrations
phosphorylation of Akt1 substrate GSK3β (PC3 cells): decreased phosphorylation
pAkt1 (Thr308 and Ser473) level (PC3 cells; 0.01-10 μM): dose-dependent decreases of pAkt1
bioavailability ([2]; ip, 20 mg/kg): 47.7%
bioavailability ([2]; po, 20 mg/kg): 10.8%
maximum plasma concentration ([2]; i.p., 20 mg/kg): 1.15 µM
time of maximum plasma concentration ([2]; i.p., 20 mg/kg): 45 min
maximum plasma concentration ([2]; i.v., 2 mg/kg): 1.05 µM
time of maximum plasma concentration ([2]; i.v., 2 mg/kg): immediately after injection
maximum plasma concentration ([2]; p.o., 20 mg/kg): 0.62 µM
time of maximum plasma concentration ([2]; p.o., 20 mg/kg): 15 min

Compound: CCC(=O)Nc1ccc2[nH]c(=O)n(C3CCN(Cc4ccc(-c5nc6cc[nH]c(=O)c6cc5-c5ccccc5)cc4)CC3)c2c1 [Compound 1b, N-(2-OXO-3-(1-(4-(5-OXO-3-PHENYL-5,6-DIHYDRO-1,6-NAPHTHYRIDIN-2-YL)BENZYL)PIPERIDIN-4-YL)-2,3-DIHYDRO-1H-BENZO[D]IMIDAZOL-5-YL) PROPIONAMIDE]
time dependence of dose-response curves [3]: No differences were observed
higher concentration required for half-maximum inhibition of Akt1 versus alkenyl counterpart [4]: 10 fold
IC50 [4, 10]: 7.5 ± 2 nM
Kd [5]: 62 ± 12 nM

Compound: CCC(=O)Nc1cccc(C(=O)NC2CCN(Cc3ccc(-c4nc5cc[nH]c(=O)c5cc4-c4ccccc4)cc3)CC2)c1 [Compound 27]
IC50 [4, 10]: 18.2 ± 13.3 nM
Kd [5]: 79 ± 21 nM

Compound: CN(C)C/C=C/C(=O)Nc1ccc2[nH]c(=O)n(C3CCN(Cc4ccc(-c5nc6cc[nH]c(=O)c6cc5-c5ccccc5)cc4)CC3)c2c1 [Compound 36]
kinact [8]: 0.00102 s⁻¹
kinact/KI [8]: 51000 ± 10000 M⁻¹ s⁻¹

Compound: N#C/C(=C\C1CC1)C(=O)Nc1cccc(C(=O)NC2CCN(Cc3ccc(-c4nc5cc[nH]c(=O)c5cc4-c4ccccc4)cc3)CC2)c1 [Compound 45]
kinact [8]: 0.00182 s⁻¹
kinact/KI [8]: 41000 ± 9000 M⁻¹ s⁻¹

Compound: C=CC(=O)Nc1ccc2c(c1)n(C1CCN(Cc3ccc(-c4nc5cc[nH]c(=O)c5cc4-c4ccccc4)cc3)CC1)c(=O)n2C [Compound 46]
Ki [8]: 1 to 18.9 nM
kinact [8]: 0.00202 s⁻¹
kinact/KI [8]: 190000 ± 25000 M⁻¹ s⁻¹

Compound: C=CC(=O)Nc1ccc(C(=O)NC2CCN(Cc3ccc(-c4nc5cc[nH]c(=O)c5cc4-c4ccccc4)cc3)CC2)c(F)c1 [Compound 47]
IC50 (Akt1_E17K): 2900 ± 137 nM
IC50 (wild-type Akt1 [9]): 21.3 ± 1.8 nM

Compound: C=CC(=O)Nc1ccc(C(=O)NC2CCN(Cc3ccc(-c4nc5cc[nH]c(=O)c5cc4-c4ccccc4)cc3)CC2)s1 [Compound 48]
IC50 (Akt1_E17K): 397 ± 172 nM
IC50 (wild-type Akt1 [9]): 8.1 ± 0.4 nM

More lines, main results first:

kinact/KI [6]: 2300 ± 300 M⁻¹ s⁻¹
IC50 [4]: 372 ± 48 nM
IC50 [4, 10]: 372 ± 48 nM
mass increase of Akt1 (single labeled) (wild-type Akt1 [7]): 572 Da
Kd [5]: 795 ± 176 nM
Compound: C=CC(=O)Nc1cccc(-c2cn(C3CCN(Cc4ccc(-c5nc6ccccn6c5-c5ccccc5)cc4)CC3)nn2)c1 [Compound 2a, N-[3-(1-{1-[4-(3-Phenylimidazo[1,2-a]pyridin-2-yl)benzyl]piperidin-4-yl}-1H-1,2,3-triazol-4-yl)phenyl]acrylamide]
covalently modified residues (Full-length wtAkt1): covalently bind to Akt1 at Cys296 and Cys310

IC50 [4]: 992 ± 328 nM
higher concentration required for half-maximum inhibition of Akt1 versus alkenyl counterpart [4]: 4 fold
Kd [5]: 797 ± 180 nM
Compound: CCC(=O)Nc1cccc(-c2cn(C3CCN(Cc4ccc(-c5nc6ccccn6c5-c5ccccc5)cc4)CC3)nn2)c1 [Compound 2b, N-[3-(1-{1-[4-(3-Phenylimidazo[1,2-a]pyridin-2-yl)benzyl]piperidin-4-yl}-1H-1,2,3-triazol-4-yl)phenyl]propionamide]

time dependence of dose-response curves [3]: No differences were observed
Compound: NC1(c2ccc(-c3nc4ccn5c(=O)[nH]nc5c4cc3-c3ccccc3)cc2)CCC1 [MK-2206, reference compound]
